Values joined by “and” are separate entries in the source; they are usually repeats but may differ in a detail not shown here. Identical values can stand only once. Like-named read-outs stand apart in the source and are kept apart here.
Experiments:
[1] = system: HIV-1 envelope mediated fusion of CHO gp160 cells with CD4 HeLa cells
Description: The peptides were tested for inhibiting the fusion of HIV-1 Env expressing cells (CHO gp 160) with CD4expressing cells (CD4 HeLa) (D. C. Chan, et al., Proc. Natl. Acad. Sci., 95:15613-15617 (1998)).
(§1) Assessment of viral infectivity and syncytia formation were carried out as described by Eckert et al., Cell, 99:103-115 (1999). In both inhibition assays, peptide stocks were dissolved in dimethylsulfoxide and their concentrations determined by absorbance in guanidine at 280 nm. The final concentration of dimethylsulfoxide in tissue culture media was 1% in all experiments. Inhibition of cell-cell fusion (syncytia formation) (G. J. Nabel, Nature 410, 1002-1007 (2001); D. C. Chan, C. T. Chutkowski, P. S. Kim, Proc. Natl. Acad. Sci. 95, 15613-15617 (1998)) was assayed by co-culturing 3×10^4 Chinese hamster ovary (CHO) cells expressing HXB2 envelope and tat and rev with 5×10^4 HeLa cells expressing CD4 and LTR-driven β-galactosidase in the presence of varying concentrations of peptides. The CHO and HeLa cells were incubated in the presence of peptides for 20 hours, and stained with 5-bromo-4-chloro-3-indolyl-β-D-galactoside (X-gal) to detect the syncytia, which were visualized by microscopy and counted manually. In the viral infectivity assay, the ability of the peptides to inhibit HIV-1 infection was assayed using a recombinant luciferase-encoding HIV-1 (G. J. Nabel, Nature 410, 1002-1007 (2001); D. C. Chan, C. T. Chutkowski, P. S. Kim, Proc. Natl. Acad. Sci. 95, 15613-15617 (1998)). 293T cells were co-transfected with an envelope-deficient HIV-1 genome with a luciferase gene (NL43LucR-E-) [B. K. Chen, K. Saksela, R. Andino, D. Baltimore, J. Virol. 68, 654-660 (1994)] and the HXB2 gp160 expression vector (pCMVHXB2 gpl60). Low-speed centrifugation was used to clear the viral supernatants of cellular debris. The supernatant containing the viruses was used to infect HOS cells expressing CD4 and CXCR4 (HOS-CD4/Fusin cells, N. Landau, National Institutes of Health AIDS Reagent Program) in the presence of varying concentrations of peptides. The HOS cells were harvested 48 hours post-infection, and luciferase activity was monitored using a Wallac AutoLumat LB953 luminometer. In both assays, the IC50, the concentration needed to inhibit 50% of cell-cell fusion events or luciferase activity, was calculated from fitting the data to the equation, y=k/(1+[peptide]/IC50), where y=number of syncytia or luciferase activity and k is a scaling constant.
To test how well the HIV-1-neutralizing epitope was recapitulated, two assays were used to measure the potency of the designed peptides in inhibiting HIV-1 envelope-mediated membrane fusion. The biological activity of the designed peptides were first measured by their ability to inhibit fusion of HeLa cells expressing CD4 and chemokine receptors and CHO expressing HIV envelope protein (D. C. Chan, C. T. Chutkowski, P. S. Kim, Proc. Natl. Acad. Sci. 95: 15613-15617 (1998)).

[2] = system: recombinant luciferase-expressing HIV-1 infecting HOS-CD4/Fusin cells
Description: The peptides were tested for inhibition of CD4 positive target cells (HOST4) by recombinant, luciferase-expressing HIV-1 (D. C. Chan, C. T. Chutkowski, P. S. Kim, Proc. Natl. Acad. Sci. 95, 15613-15617 (1998)).
as §1
In a second assay, the ability of the peptides to inhibit HIV infection of HOS cells expressing CD4 and CXCR4 was measured, using a luciferase-based reporter assay (D. C. Chan, C. T. Chutkowski, P. S. Kim, Proc. Natl. Acad. Sci. 95: 15613-15617 (1998); Chen, B. K., et al.,J. Virol., 68(2):[…] (1994)).

[3] = Circular dichroism spectroscopy; assay type: physicochemical; details: PBS, pH 7.0, 25° C., C34-GCN4 with about 0.7 M guanidine hydrochloride
Description: The guanidine hydrochloride used to solubilize C34-GCN4 absorbs light at wavelengths below 210 nm. Experimental conditions were PBS, pH 7.0, 25° C.
CD spectra were measured on an Aviv 60DS spectrapolarimeter at 25° C. in phosphate buffered saline (PBS; 10 mM sodium phosphate, 150 mM NaCl, pH 7.0). […] Guanidine concentrations were measured by refractometry.

[4] = molecular target: HIV-1 gp41 envelope glycoprotein (HXB2 envelope) (HIV-1 (HXB2)) (UniProt P04578); assay: cell-based or functional assay
[5] = system: HIV-1 envelope mediated fusion of CHO gp160 cells with CD4 HeLa cells; details: C34 data taken from Chan et al., PNAS 95:15613 (1998); read-out: Cell-Cell Fusion Assay (IC50 in nM); cited from earlier work
[6] = system: recombinant luciferase-expressing HIV-1 infecting HOS-CD4/Fusin cells; details: C34 data taken from Chan et al., PNAS 95:15613 (1998); read-out: Viral Infectivity Assay (IC50 in nM); cited from earlier work
[7] = 10 μM; Gonzalez et al. 1996; cited from earlier work

In the case of “Ac-WRMWDLEIKVYTLLIKNLILESEVQQLKNLVELR-NH2 (C-terminus assumed) [Peptide C34-GCN4]”, the “inhibition of cell-cell fusion, in words” value [1] is reported as “strong inhibitory potency”, the IC50 ([1]; read-out: Cell-Cell Fusion Assay (IC50 in nM), CHO cells expressing HXB2 envelope co-cultured with CD4 HeLa cells, 20 hours, 1% DMSO) is reported as 4.6 nM and 5 nM and the IC50 ([2]; read-out: Viral Infectivity Assay (IC50 in nM), HOS cells expressing CD4 and CXCR4, luciferase 48 hours post-infection, 1% DMSO) is reported as 16 nM. The “[Θ]222 value” ([3]; listed as C34-GCN4 peptide) was −12,400 deg cm^2 dmol^−1 and −12,000 deg cm^2 dmol^−1 and the solubility was under 1 µM.
C34-GCN4 peptide (designed binder) gave a Cell-Cell Fusion Assay (IC50 in nM) [4] of 5 nM, a Viral Infectivity Assay (IC50 in nM) [4] of 16 nM and an inhibition of cell-cell fusion, IC50 [4] of 4.6 nM. The inhibition of viral infectivity, IC50 [4] was 19 nM.
In the case of “C34: linear C-peptide of HIV-1 gp41 (SEQ ID NO: 2), unstructured in solution [Peptide C34]”, the “[Θ]222 value” [3] is given as −3,800 deg cm^2 dmol^−1, the IC50 [5] is given as 0.6 nM and the IC50 [6] is given as 2.1 nM.
For GCN4 homodimer, the inhibition of cell-cell fusion [4] was over 50 µM and the inhibition of viral infectivity [4] was over 50 µM.
For “GCN4 homodimer: covalent homodimer of CGG-GCN4”, the “inhibition of cell-cell fusion, in words” value [1] was “no activity”, the “Cell-Cell Fusion Assay (IC50 in nM)” value ([1]; CHO cells expressing HXB2 envelope co-cultured with CD4 HeLa cells, 20 hours, 1% DMSO) was “none” and the IC50 ([1]; read-out: no inhibitory activity in cell-cell fusion up to stated concentration, highest concentration without measurable inhibition) was over 50000 nM. For the same substance, the “inhibition of viral infectivity, in words” value [2] was “no activity”, the “Viral Infectivity Assay (IC50 in nM)” value ([2]; HOS cells expressing CD4 and CXCR4, luciferase 48 hours post-infection, 1% DMSO) was “none” and the IC50 ([2]; read-out: no inhibitory activity in viral infectivity up to stated concentration, highest concentration without measurable inhibition) was over 50000 nM. For the same substance, the “transition midpoint under temperature denaturation” value [7] was “over 100 °C”.
